How the values were obtained:
[1] = Particle size analysis (Lecotrac laser particle size analyser) pre and post nanomilling; type: physicochemical
Description: 2.5 g of compound of example 176 was weighed into a 10 ml centrifuge tube. 25 ml of 0.3 mm yttrium zirconium (YTZ) ceramic milling beads (Manufacturer: Tosob, Japan; Supplier: Glen Creston Ltd., batch no. 5280130030)”) was weighed into a 50 ml milling pot. 22.5 ml of aqueous 1.5% HPMC was measured with a measuring cylinder into a 100 ml beaker. This solution was homogenised for 3 seconds with an Ultra Turrax T25 homogeniser. Approximately 200 mg of the 2.5 g of the compound was added to the HPMC solution and homogenised at the lowest speed setting until the powder was wetted. This was repeated until all the compound had been added. The speed of the homogeniser was then increased to maximum and the suspension was homogenised for a further 3 minutes. This suspension was allowed to stand for 30 minutes in order to allow some of the foam to disperse. The suspension was then poured into the 50 ml pot containing the YTZ milling beads, stirring to release any trapped air. The lid to the pot was then fitted and the pot sealed with some Nesco film. This procedure was repeated for a second 50 ml nanomilling pot and both pots were placed on a Retsch mill and milled for a total of 8 hours.
The milling pots were removed from the Retsch mill and left to cool and for the foam to disperse overnight. In the morning the suspension and bead mixture was passed through a 200μ, 40 mm diameter screen. The contents from each 50 ml pot was washed with aqueous 1.5% HPMC: 10% of the original suspension volume (i.e. 2.5 ml). The suspension from the 2 pots was combined to make 1 batch. The suspension obtained from the method above was named the concentrate.
A particle size analysis was carried out on the Lecotrac laser particle size analyser. The results are shown in Table B along with the results from the starting material for comparison:
Compounds of Examples 19, 34, 194, 217, 228, 247 were nanomilled on a 1 g scale using the process described above and the particle size analysed pre and post nanomilling.

[2] = molecular target: human cannabinoid CB2 receptor (Homo sapiens, UniProt P34972); assay: Cannabinoid CB2 receptor agonist activity (yeast reporter assay, FDGlu fluorescence); type: cell-based; settings: for EC50: EC50 value at the cloned human cannabinoid CB2 receptor; for Emax: read-out: efficacy value (Emax relative to HU210) at the cloned human cannabinoid CB2 receptor
Sequence of human cannabinoid CB2 receptor (P34972 whole entry): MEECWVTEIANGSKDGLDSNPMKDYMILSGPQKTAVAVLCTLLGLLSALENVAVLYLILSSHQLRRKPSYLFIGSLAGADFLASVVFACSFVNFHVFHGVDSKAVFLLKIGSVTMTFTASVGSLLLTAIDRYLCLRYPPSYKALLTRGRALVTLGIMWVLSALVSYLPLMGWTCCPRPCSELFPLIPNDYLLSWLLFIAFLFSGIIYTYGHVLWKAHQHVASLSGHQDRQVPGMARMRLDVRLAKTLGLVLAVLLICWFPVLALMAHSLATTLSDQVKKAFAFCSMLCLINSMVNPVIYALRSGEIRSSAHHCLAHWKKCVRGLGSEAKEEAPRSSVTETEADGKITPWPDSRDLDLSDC
In short: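 S. cerevisiae MMY23 expressing human CB2 with a Gpa1/Gαi3 chimeric G-protein, grown 24 h at 30 °C with agonist (1% DMSO) in selective media containing 10 mM 3-aminotriazole and FDGlu, pH 7.0. Fluorescein fluorescence (485/535 nm) fitted by four-parameter curve; Emax and EMR relative to HU210.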

[3] = Table C, after nanomilling, 1 g scale
[4] = Table C, before nanomilling, 1 g scale
[5] = Table B, after 8 hours milling in aqueous 1.5% HPMC, 2.5 g per pot
[6] = Table B, starting material before nanomilling, Lecotrac laser particle size analyser

**Q.** Which results are given for `O=C(NCC1CCC1)c1cnc(Nc2ccc(F)c(Cl)c2)nc1C(F)(F)F` [Example 194, 2-(3-Chloro-4-fluorophenylamino)-4-trifluoromethyl-pyrimidine-5-carboxylic acid cyclobutylmethyl-amide]?
**A.** Post-nanomilling 50% percentile [1, 3]: 0.56 μ; Post-nanomilling 95% percentile [1, 3]: 1.97 μ; Pre-nanomilling 50% percentile [1, 4]: 6.78 μ; Pre-nanomilling 95% percentile [1, 4]: 33.7 μ; EC50 [2]: 20 to 300 nM; Emax [2]: > 50%

**Q.** What does the source list for `O=C(NCC1CCC1)c1cnc(Nc2ccc(Cl)cc2F)nc1C(F)(F)F` [Example 228, 2-(2-Fluoro-4-chloro-phenylamino)-4-trifluoromethyl-pyrimidine-5-carboxylic acid cyclobutylmethyl-amide]?
**A.** Post-nanomilling 50% percentile [1, 3]: 0.44 μ; Post-nanomilling 95% percentile [1, 3]: 1.69 μ; Pre-nanomilling 50% percentile [1, 4]: 4.65 μ; Pre-nanomilling 95% percentile [1, 4]: 47.1 μ; EC50 [2]: 20 to 300 nM; Emax [2]: > 50%

**Q.** For `N#Cc1ccc(Nc2ncc(C(=O)NCC3CCCC3)c(C(F)(F)F)n2)cc1` [Example 176, 2-(4-Cyanophenylamino)-4-trifluoromethyl-pyrimidine-5-carboxylic acid cyclopentylmethyl-amide], which “Post-nanomilling 50% percentile” value [1, 5] is on record?
**A.** 0.33 μ

**Q.** What about the “Post-nanomilling 95% percentile” value [1, 5] of the same compound?
**A.** 1.78 μ

**Q.** What about the “Pre-nanomilling 50% percentile” value [1, 6] of the same compound?
**A.** 13.15 μ

**Q.** What about the “Pre-nanomilling 95% percentile” value [1, 6] of the same compound?
**A.** 68.7 μ

**Q.** And the EC50 [2]?
**A.** 20 to 300 nM

**Q.** And the Emax [2]?
**A.** > 50%

**Q.** With `O=C(NCC1CCCCC1)c1cnc(Nc2cccc(F)c2)nc1C(F)(F)F` [Example 19, 2-(3-Fluorophenylamino)-4-trifluoromethylpyrimidine-5-carboxylic acid cyclohexylmethyl-amide] as the compound, how does the “Post-nanomilling 50% percentile” value [1, 3] read?
**A.** 0.40 μ

**Q.** What about the “Post-nanomilling 95% percentile” value [1, 3] of the same compound?
**A.** 1.40 μ

**Q.** What about the “Pre-nanomilling 50% percentile” value [1, 4] of the same compound?
**A.** 5.22 μ

**Q.** What about the “Pre-nanomilling 95% percentile” value [1, 4] of the same compound?
**A.** 25.5 μ

**Q.** And the EC50 [2]?
**A.** 20 to 300 nM

**Q.** And the Emax [2]?
**A.** > 50%

**Q.** With `N#Cc1ccc(Nc2ncc(C(=O)NCC3CCOCC3)c(C(F)(F)F)n2)cc1Cl` [Example 217, 2-(4-Cyano-3-chloro-phenylamino)-4-trifluoromethyl-pyrimidine-5-carboxylic acid (tetrahydro-pyran-4-ylmethyl)-amide] as the compound, how does the “Post-nanomilling 50% percentile” value [1, 3] read?
**A.** 0.34 μ

**Q.** What about the “Post-nanomilling 95% percentile” value [1, 3] of the same compound?
**A.** 1.30 μ

**Q.** What about the “Pre-nanomilling 50% percentile” value [1, 4] of the same compound?
**A.** 5.70 μ

**Q.** What about the “Pre-nanomilling 95% percentile” value [1, 4] of the same compound?
**A.** 34.9 μ

**Q.** And the EC50 [2]?
**A.** 20 to 300 nM

**Q.** What about the Emax [2] of the same compound?
**A.** > 50%

**Q.** What does the source list for `O=C(NCC1CCCC1)c1cnc(Nc2ccc(F)c(Cl)c2)nc1C(F)(F)F` [Example 247, 2-(3-Chloro-4-fluoro-phenylamino)-4-trifluoromethyl-pyrimidine-5-carboxylic acid cyclopentylmethyl-amide]?
**A.** Post-nanomilling 50% percentile [1, 3]: 0.64 μ; Post-nanomilling 95% percentile [1, 3]: 2.53 μ; Pre-nanomilling 50% percentile [1, 4]: 13.2 μ; Pre-nanomilling 95% percentile [1, 4]: 68.7 μ; EC50 [2]: 20 to 300 nM; Emax [2]: > 50%

**Q.** What does the source list for `O=C(NCC1CCOCC1)c1cnc(Nc2ccc(Cl)cc2Cl)nc1C(F)(F)F` [Example 34, 2-(2,4-Dichlorophenylamino)-4-trifluoromethylpyrimidine-5-carboxylic acid (tetrahydropyran-4-ylmethyl)-amide]?
**A.** Post-nanomilling 50% percentile [1, 3]: 0.18 μ; Post-nanomilling 95% percentile [1, 3]: 0.56 μ; Pre-nanomilling 50% percentile [1, 4]: 10.46 μ; Pre-nanomilling 95% percentile [1, 4]: 32.7 μ; EC50 [2]: 20 to 300 nM; Emax [2]: > 50%

**Q.** Which EC50 [2] does the source give for `COc1cccc(Nc2ncc(C(=O)NCC3CCOCC3)c(C(F)(F)F)n2)c1` [Example 37, 2-(3-Methoxyphenylamino)-4-trifluoromethylpyrimidine-5-carboxylic acid (tetrahydropyran-4-ylmethyl)-amide] here?
**A.** 20 to 300 nM

**Q.** What about the Emax [2] of the same compound?
**A.** > 50%

**Q.** With `Cc1ccc(Nc2ncc(C(=O)NCC3CCOCC3)c(C(F)(F)F)n2)c(Cl)c1` [Example 110, 2-(2-Chloro-4-methyl-phenylamino)-4-tri-fluoromethyl-pyrimidine-5-carboxylic acid (tetrahydropyran-4-ylmethyl)-amide] as the compound, how does the EC50 [2] read?
**A.** 300 to 1000 nM

**Q.** What about the Emax [2] of the same compound?
**A.** > 50%

**Q.** What does the source list for `O=C(NCC1CCOCC1)c1cnc(Nc2ccc(C(F)(F)F)c(F)c2)nc1C(F)(F)F` [Example 218, 2-(4-Trifluoromethyl-3-fluoro-phenylamino)-4-trifluoromethyl-pyrimidine-5-carboxylic acid (tetrahydro-pyran-4-ylmethyl)-amide]?
**A.** EC50 [2]: 20 to 300 nM; Emax [2]: > 50%

**Q.** Which EC50 [2] does the source give for `O=C(NCc1ccccc1)c1cnc(Nc2cc(Cl)cc(Cl)c2)nc1C(F)(F)F` [Example 276, 2-(3,5-Dichlorophenylamino)-4-trifluoromethylpyrimidine-5-carboxylic acid benzyl-amide] here?
**A.** 20 to 300 nM
